Data published in US11987835B2, “Amino acid-sensing diguanylate cyclase and methods of use” (priority 2019, dated 2024).

Tests used:
Aer01 [1] = format: cell-based, Aeromonas veronii; conditions: WT Aer01, 1 mM ligand versus WT without ligand, mean
Description: Exploration Assay. Overnight cultures (TSB) of Aer01 Strains were pelleted (1 mL), and resuspended in 1 ml sterile EM. […] The cultures were incubated, shaking, at 30° C. for 3 hours. An aliquot of each culture was passed through a 0.2 μM filter (Corning® Costar® Spin-X® centrifuge tube filters) to generate cell-free supernatant. To a sterile 96-well plate round-bottom plate, 80 μL of unfiltered culture was added to each well to include five replicates for each condition. To another sterile 96-well plate round-bottom plate, 80 μL of the cell-free supernatant was added to each well to replicate the layout of the culture plate. Using a Rainin Liquidator™ 96-channel benchtop pipettor, 5 μL of the cell-free supernatant was pulled up into 20 μL Rainin pipette tips. These tips then were lowered down into the wells of the culture plate so the tips were submerged to half the depth of the culture volume in the wells. This set-up was incubated at room temperature for 30 min, during which time the cells in the culture can swim up into the supernatant in the pipette tips. After incubation, the contents of the tips were ejected into the wells of a sterile 96-well plate (Corning, flat-bottom, #3595) to which 195 μL of sterile TSB medium was added to each well. This plate was immediately placed in a FLUOstar Omega microplate reader (BMG Labtech, Offenburg, Germany) and growth curves monitored by measuring absorbance (600 nm) every 10 min for 12-16 hrs, with 30° C. incubation and constant shaking. The growth curves were plotted and the times at which the absorbance passed 0.5 was determined for each plot. The time difference between a particular condition and a reference condition (as indicated in FIG. 5C) represents the “exploration response” of Aer01 in that condition.
An “exploration assay” was used to measure population-level motility. For this assay Aer01 was incubated in the presence/absence of amino acid ligand (1 mM) for˜4 hrs, then the culture was added to the wells of a 96-well plate and pipette tips filled with the cell-free supernatant of the same cultures was lowered into the wells (FIG. 13). During a 30 min incubation period the Aer01 cells in the wells swam up into the pipette tips. […] To quantify the number of cells in the pipette tips after the 30 min exploration time, the contents of the pipette tips were ejected into the wells of a 96-well plate containing rich media and growth curves were monitored. […] This time difference between conditions, “exploration response,” was calculated to compare across many strains and conditions (FIG. 12C).

[2] = system: SpdE diguanylate cyclase activity in Aer01; assay: Intracellular cyclic di-GMP quantification; format: cell-based, Aeromonas veronii; conditions: WT Aer01, 1 mM amino acid, ~4 hrs, versus no ligand
Description: Intracellular cyclic di-GMP quantification. […] Cultures were incubated, shaking, at 30° C. for 4 hours. Sample OD600 was measured and the entire volume pelleted. Sample pellets were resuspended in 300 μL ice cold extraction buffer (40/40/20 acetonitrile/methanol/water+0.1 N formic acid), iced for 30 min, then pelleted at maximum speed in tabletop microcentrifuge for 10 min. The supernatant was transferred to a new tube and stored at −80° until being vacuum concentrated until completely evaporated.
Dried samples were resuspended in 100 μL Ultra Performance liquid chromatography-grade water and centrifuged for two minutes at 18,000×g (Eppendorf® Centrifuge 5242R). The debris-free supernatants were moved to LCMS Certified Clear Glass 12×32 mm screw neck max recovery vials (Waters®). Ten microliters of each sample were analyzed using LC-MS/MS on a Quattro Premier XE mass spectrometer coupled with an Acquity Ultra Performance LC system (Waters®). Cyclic di-GMP was detected with electrospray ionization using multiple reaction monitoring in negative-ion mode at m/z 689.16→344.31. […]
In the case of SpdE, ligand binding to the PAS/Cache was hypothesized to regulate SpdE diguanylate cyclase activity, thereby altering intracellular levels of c-di-GMP. To test this, WT and ΔspdE Aer01 were incubated in the presence or absence of amino acid ligands for ˜4 hrs, then pelleted and lysed the cells to extract and quantify intracellular c-di-GMP.

[3] = system: Aer01 immigration into GF zebrafish; assay: Migration rate experiments; format: in vivo; conditions: WT +/- valine
Description: Migration rate experiments. Strains were grown, shaking, overnight in TSB, at 30° C. Overnight cultures were pelleted and washed in sterile EM, then diluted to 1:100 in sterile EM, and incubated at room temperature for ˜2 hrs. If amino acid SpdE ligands were tested, amino acids were added to the prepared inoculum and fish flasks before the 2 hr incubation. GF zebrafish (5 or 6 dpf) inoculated with the cultures to yield ˜10^5 CFU/ml. The fish were then split into replicate flasks containing 10 fish and 10 ml inoculated flask EM. An EM sample was taken and plated immediately to quantify CFU/ml of the inoculating strain. […] After 24-48 hr incubation, colonies on plates were counted.
To more directly investigate differences in immigration rate, migration rate experiments were performed. Fish were mono-associated (inoculated with individual strains) via the EM, then 10 fish were dissected every 60 minutes, and the fraction of fish colonized at each time point was calculated (FIG. 3). […] This experiment assessed the ability of Aer01 variants to migrate into GF fish from the environment during initial colonization. […] After allowing 15 hrs for Aer01 to migrate from donor to recipient fish, the fish were dissected and determined the abundance of Aer01 in all fish within each flask (FIG. 6D).

[4] = system: Aer01 SpdE tandem PAS/dCache region (residues 37-287); assay: Thermofluor (thermal shift) assay, Aer01 SpdE; format: binding, Aeromonas veronii; conditions: 10 mM pure amino acid, replicate ΔTm data
Description: Thermofluor Assay. The periplasmic portion of SpdE was cloned, expressed and purified in E. coli. Thermofluor assays were performed using a Thermo Fisher Scientific StepOnePlus Real-time PCR instrument. Each 20 μL sample contained 0.1 mg/mL SpdE protein, 4× SYPRO Orange dye, 165 mM NaCl, 80 mM Tris pH 7.5 and 10 mM ligand (free amino acid dissolved in water). All samples were done in triplicate and repeated 2-3 times on different days. All reagents and steps were performed at 4° C. and placed in 96 well PCR plates. The PCR plate was slowly heated (˜0.03° C./sec) from 4° C. to 80° C. in the StepOnePlus instrument and fluorescent measurements were taken every 8.5 sec. The resultant thermal shift curves were analyzed to find the inflexion points, which correspond to the melting temperature (Tm) of the protein (with or without ligand). Inflexion points were determined in Microsoft Excel by calculating the half way point between the minimum fluorescence value prior to fluorescence increase and the maximum fluorescence value. The Tm difference between protein with and without ligand was calculated and plotted to determine the thermal stability shift as a proxy for ligand binding.
In order to identify SpdE ligands, a thermal shift assay was conducted using 96-well Biolog Phenotype MicroArray plates as a high-throughput approach to screen compounds for ligand candidates. Using heterologously expressed and purified tandem PAS/dCache region of the protein (residues 37-287), ˜200 compounds were screened for ones that conferred a significant shift in protein thermal stability (see Table 4). […] For each curve, the melting temperature (Tm) was determined (brown circles), which corresponds to the midpoint of protein unfolding. The ΔTm (difference between test Tm and water control Tm) was calculated for each amino acid condition.

[5] = system: Aer01 colonization of larval zebrafish gut; assay: Bacterial competitions in vivo (competitive index); conditions: GF zebrafish, ligand supplemented into inoculum and flask medium (1 mM proline)
Description: Bacterial competitions in vivo. For in vivo bacterial competitions, strains (purified evolved isolates, or Aer01 genetic variants) were grown overnight in TSB from freezer stocks. 1 ml of the overnight cultures were pelleted (8,700 rcf, 2 min), then resuspended in 1 ml sterile EM. Competing strains were mixed, then added to flasks of 4 dpf GF (or CV fish) WT fish at ˜10^6 CFU/ml. For all competitions, sfGFP-tagged Aer01 was used as the “reference” strain. […] At 7 dpf, fish intestines were dissected as described above, and each intestine transferred into a 1.6 ml tube containing 500 μl sterile EM and ˜100 μl bullet beads, then bullet blended as described above. Homogenized samples were diluted appropriately in sterile EM, spread plated on TSA plates, incubated at 30° C. for 1-2 days, and the colonies counted. Strains were differentiated by fluorescence microscopy. Competitive index (CI) was calculated by dividing the strain ratio (test strain divided by reference strain) in the gut at the end of the competition by the strain ratio in the inoculum ((test/reference)gut/(test/reference)inoculum) (FIG. 1). The limit of detection is 5 CFU/gut; for samples were one strain was below the limit of detection, the abundance was set to 5 CFU in order to calculate a CI; this was the case for few of the samples.
To test whether WT motility, and therefore immigration into the host, could be increased with addition of ligands, competitions were performed as previously described, this time supplementing the inoculum and flask medium with SpdE ligand.

Aer01 [6] = format: cell-based, Aeromonas veronii
Description: Live imaging and quantification of Aer01 motility. […] EM containing proline or valine (pH adjusted to 7.8 with HCl/NaOH) was added to the wells to generate the desired final concentrations of amino acid (0, 1 nM, 10 nM, 100 nM, 1 μM, or 1 mM) and cell densities of OD 0.1, each performed in triplicate. The tray was covered by parafilm and incubated at 30° C. for 5 hours. Cells were imaged between hour 5-6. Prior to imaging, bacterial samples were moved to a temperature-controlled box housing the microscope, heated to 30° C. 2 ul of bacteria from treatments were applied to a well slide (MP Biomedicals 10-well multitest slides #096041805), covered with a coverslip, and imaged immediately. Videos of bacteria were captured using a Nikon Eclipse Ti inverted microscope on the GFP channel using 20× magnification at 39 frames per second. Videos of treated bacteria were analyzed with particle tracking software (Parthasarathy, Nature Methods 9:724-236, 2012) using these settings: “objects” were identified using bpfilter 3, nsize 7, and gradobjsize 0. A standard threshold of 3.99-6 was applied, depending on the degree of background. Motile bacteria were defined as objects tracked over at least 1 s (39 frames) with a standard deviation in position of pixels/frame of at least 1.
To do this, Aer01 was incubated in medium+/−ligand (ranging between 0 and 1 mM) then wet-mounted and imaged on an inverted microscope.

Aer01 [7] = assay: Biofilm assay (crystal violet); format: cell-based, Aeromonas veronii; conditions: WT Aer01, 1 mM ligand, 48 hrs
Description: Biofilm Assay. […] To the wells of a sterile 96-well plate (Corning, flat-bottom, #3595), 150 μL of each resuspended culture was added, in triplicate. A blank control well was added for each condition using the appropriate uninoculated media. This plate was incubated at 30° C., stationary, for 48 hours. After incubation, the biofilms were quantified using a standard crystal violet biofilm staining procedure. […] Briefly, the supernatant was removed from each well, then the wells gently rinsed three times with 150 μL sterile EM. Then, 150 μL 0.1% crystal violet was added to each well and the plate was incubated at room temperature for 10 minutes, followed by five rinses with 150 μL sterile EM. To destain, 150 μL 95% ethanol was added to each well and the plate was incubated at room temperature for 10 minutes. Each well was mixed well and the contents transferred to a clean 96-well plate and the absorbance (570 nm) was read on a FLUOstar Omega microplate reader (BMG Labtech, Offenburg, Germany).

## CC(C)[C@H](N)C(=O)O [valine]
Aer01 [1]
  exploration response: 13.2 min
[2]
  intracellular c-di-GMP: significantly lower
[3]
  immigration rate of WT Aer01 into fish: migrated into the fish faster
[4]
  thermal shift (ΔTm) in words: largest shifts
[5]
  median CI (competitive index) of ΔspdE versus WT: 7
Aer01 [6]; WT Aer01, 1 μM and 1 mM ligand
  number of motile cells: striking increase
Aer01 [6]; WT Aer01, below 1 μM ligand
  motility: little increase
Aer01 [7]
  biofilm formation: more robust biofilms in the absence of ligand
